From patent US20140357713A1, “ANTIMICROBIAL COMPOUNDS AND METHODS OF USE” (NexMed Holdings, Inc., priority 2012, published 2014)
In brackets after ≈: the same amount, converted by molar mass.

Key:
[1] = system: Staphulococcus aureus (ATCC 29213); assay: Minimum inhibitory concentration (MIC) assay, Example 33; type: cell-based, Staphylococcus aureus; settings: for MIC: Table 19 summary
Protocol: (§1) Thirty compounds were tested for antimicrobial activity using standard procedures and standard strains for both the minimum inhibitory concentration (MIC) assay and a time kill study. Both the MIC assay and the time kill study were performed according to Clinical and Laboratory Standards Institute (CLSI) guidelines. Three bacteria strains, Escherichia coli (ATCC 25922), Pseudomonas aeruginosa (ATCC 27853), Staphulococcus aureus (ATCC 29213), and two fungus strains, Candida albicans (ATCC 90029) and Aspergillus niger (CMCC 98003), were used in the experiments.
(§2) Preparation of cultures. Before the experiment, two days for the bacteria strains and five days for fungus strains, an aliquot was removed from the cultures frozen at −80° C. Medium was added to the surface of an appropriate agar plate and streaked with the aliquot. The plate was incubated for 20 to 24 hrs at 35±2° C. for bacteria or for 5 days at 26-30° C. in incubator for fungus. From the resulting growth on each plate, one isolated colony of similar morphology was selected and re-streaked onto a fresh agar plate using a sterile disposable loop. The plate was incubated 20 to 24 hrs at 35±2° C. or for 5 days at 26-30° C. in an incubator.
(§3) Preparation of Assay Plates with Medium and Drugs. On the day of the assay, CAMHB medium or RPMI 1640 medium was removed from 4′C storage and allowed to reach room temperature. Ninety microliters (μL) of room temperature CAMHB or RPMI 1640 (supplemented with the appropriate concentration of DMSO, if required) were added to rows B-G of each 96-well microtiter plate. Using a pipette, duplicate 180 μL aliquots of each drug stock solution were added to column 1 (e.g. A1 and B1 or C1 and D1 or E1 and F1 or G1 and H1). Using a multichannel pipette or the Provision 2000 liquid handler, serial 2-fold dilutions (90 μL) were performed in each row across the plate to row G. Eighty μL of compounds dilutions were transferred to a 96-deep well plate. Medium, 1,520 μL of CAMHB or RPMI 1640, was added to each well. The contents of the wells were mixed thoroughly. A 50 μL aliquot of each of the resulting mixtures was transferred to a 96-well assay plate.
(§4) For bacteria, a sterile inoculating loop was used to transfer growth from an agar plate culture into about 5 mL of test medium. Using a turbidity meter, this inoculum was adjusted so that its density (600 nm) was equivalent to a 0.5 McFarland barium sulfate standard (0.08-0.13). The resulting suspension was diluted 1:100 into medium to obtain two times test inoculums.
(§5) For Aspergillus niger, sporulating colonies were covered with RPMI 1640, and a suspension was prepared by gently probing the colonies with the tip of a transfer pipette. The suspension was transferred to a sterile tube and mixed with a vortex mixer for 15 seconds. The densities at 530 nm were adjusted to 0.09-0.13 for each sample. The resulting suspension was diluted 1:50 with the medium to obtain two times test inoculums. Fifty μL/well of this inoculum suspension was added to wells of drug-containing plates (1:2 dilution). Plates were incubated at 35° C. for the appropriate times. The MIC was read and recorded according to CLSI guidelines.
(§6) The MIC values for thirty compounds against Escherichia coli, Pseudomonas aeruginosa, Staphulococcus aureus, Candida albicans, and Aspergillus niger were recorded and are presented in Table 3 and Table 4.

pH (Table 1) = type: physicochemical
[2] = system: Escherichia coli (ATCC 25922); assay: Time kill study, Example 33 (0 to 5 min); type: cell-based; settings: 1×MIC
Protocol: as §1
(§7) The viable counts in Log10 CFU/mL at each time point were recorded.
(§8) Time kill studies. Strain suspensions were prepared as described above for the MIC test, and strain suspensions and compound solutions were mixed in the same volume. Samples were removed at specified times including 0 min, 30 sec, 1 min and 5 mins, were diluted in the test medium and streaked on agar. Colonies were counted after 24 to 48 hrs of incubation. […]

[3] = system: Pseudomonas aeruginosa (ATCC 27853); assay: Time kill study, Example 33 (0 to 5 min); type: cell-based; settings: 1×MIC
Protocol: as §1, §7, §8

[4] = system: Staphylococcus aureus (ATCC 29213); assay: Time kill study, Example 33 (0 to 5 min); type: cell-based; settings: 1×MIC
Protocol: as §1, §7, §8

[5] = system: Candida albicans (ATCC 90029); assay: Minimum inhibitory concentration (MIC) assay, Example 33; type: cell-based; settings: for MIC: Table 19 summary
Protocol: as §1, §2, §3
For Candida albicans, a sterile inoculating loop was used to transfer growth from an agar plate culture into a tube with RPMI1640 medium. This inoculum was adjusted so that its density at 530 nm was in the ranges from 0.08 to 0.13. The resulting suspension was diluted 1:50 and further diluted 1:20 with the medium to obtain two times test inoculums.
as §5, §6

[6] = system: Aspergillus niger (CMCC 98003); assay: as above; type: cell-based; settings: for MIC: Table 19 summary
Protocol: as §1, §2, §3, §5, §6

[7] = system: Escherichia coli (ATCC 25922); assay: as above; type: cell-based; settings: for MIC: Table 19 summary of Example 33 and Example 35
Protocol: as §1, §2, §3, §4, §5, §6

[8] = system: Pseudomonas aeruginosa (ATCC 27853); assay: as above; type: cell-based; settings: for MIC: Table 19 summary
Protocol: as §1, §2, §3, §4, §5, §6

Row | Compound | MIC [1] | MIC S. aureus ([1]; n = 1) | MIC S. aureus ([1]; n = 2) | pH (pH (Table 1)) | Viable counts, Escherichia coli time kill study ([2]; 0.5 min) | Viable counts, Escherichia coli time kill study ([2]; 1 min) | Viable counts, Escherichia coli time kill study ([2]; 5 min) | Viable counts, Escherichia coli time kill study ([2]; time 0) | Viable counts, Pseudomonas aeruginosa time kill study ([3]; 0.5 min) | Viable counts, Pseudomonas aeruginosa time kill study ([3]; 1 min) | Viable counts, Pseudomonas aeruginosa time kill study ([3]; 5 min) | Viable counts, Pseudomonas aeruginosa time kill study ([3]; time 0) | Viable counts, Staphylococcus aureus time kill study ([4]; 0.5 min) | Viable counts, Staphylococcus aureus time kill study ([4]; 1 min) | Viable counts, Staphylococcus aureus time kill study ([4]; 5 min) | Viable counts, Staphylococcus aureus time kill study ([4]; time 0) | MIC [5] | MIC Candida albicans ([5]; n = 1) | MIC Candida albicans ([5]; n = 2) | MIC [6] | further results
1 | CCCCCCCCCCCCOC(=O)C(C)N(C)C.CCCCCCCCCCCCOC(=O)C(C)N(C)C.O=S(=O)(O)c1cccc2c(S(=O)(=O)O)cccc12 (stereo not shown) [Nex-32, Dodecyl 2-(dimethylamino)propanoate heminaphthalene-1,5-disulfonate] | 1560 µg/mL | 1560 µg/mL | 1560 µg/mL | 3.87 | 5.77 Log10 CFU/mL | 4.7 Log10 CFU/mL | <3.52 Log10 CFU/mL | 6.05 Log10 CFU/mL | 5.62 Log10 CFU/mL | 4.48 Log10 CFU/mL | 4.12 Log10 CFU/mL | 5.73 Log10 CFU/mL | 6.31 Log10 CFU/mL | 6.23 Log10 CFU/mL | 6.2 Log10 CFU/mL | 6.25 Log10 CFU/mL | >12500 µg/mL | >12500 µg/mL | >12500 µg/mL | >12500 µg/mL | MIC Aspergillus niger ([6]; n = 1): >12500 µg/mL; MIC Aspergillus niger ([6]; n = 2): >12500 µg/mL; MIC [7]: 3130 µg/mL; MIC E. coli ([7]; n = 1): 3130 µg/mL; MIC E. coli ([7]; n = 2): 3130 µg/mL; MIC [8]: 6250 µg/mL; MIC P. aeruginosa ([8]; n = 1): 6250 µg/mL; MIC P. aeruginosa ([8]; n = 2): 6250 µg/mL
2 | CCCCCCCCCCCCOC(=O)C(C)N(C)C (stereo not shown) [Nex-46, Dodecyl 2-(dimethylamino)propanoate 2-hydroxyethanesulfonate] | 3130 µg/mL (≈ 11 mM) | 3130 µg/mL (≈ 11 mM) | 3130 µg/mL (≈ 11 mM) | 2.95 | 5.74 Log10 CFU/mL | 5.91 Log10 CFU/mL | 3.97 Log10 CFU/mL | 5.87 Log10 CFU/mL | 4.48 Log10 CFU/mL | 3.7 Log10 CFU/mL | <3.52 Log10 CFU/mL | 5.67 Log10 CFU/mL | 6.25 Log10 CFU/mL | 6.21 Log10 CFU/mL | 6.21 Log10 CFU/mL | 6.26 Log10 CFU/mL | >12500 µg/mL | >12500 µg/mL | >12500 µg/mL | >12500 µg/mL | MIC Aspergillus niger ([6]; n = 1): >12500 µg/mL; MIC Aspergillus niger ([6]; n = 2): >12500 µg/mL; MIC [7]: 3130 µg/mL (≈ 11 mM); MIC E. coli ([7]; n = 1): 3130 µg/mL (≈ 11 mM); MIC E. coli ([7]; n = 2): 3130 µg/mL (≈ 11 mM); MIC [8]: 6250 µg/mL (≈ 21.9 mM); MIC P. aeruginosa ([8]; n = 1): 6250 µg/mL (≈ 21.9 mM); MIC P. aeruginosa ([8]; n = 2): 6250 µg/mL (≈ 21.9 mM)
3 | CCCCCCCCCCCCOC(=O)[C@@H](C)N(C)C.Cl [Nex-56, D-Dodecyl 2-(dimethylamino)propanoate hydrochloride] | 3130 µg/mL | 3130 µg/mL | 3130 µg/mL | 1.70 | <4.0 Log10 CFU/mL | <3.70 Log10 CFU/mL | <3.52 Log10 CFU/mL | 5.92 Log10 CFU/mL | <4.0 Log10 CFU/mL | <3.70 Log10 CFU/mL | <3.52 Log10 CFU/mL | 5.56 Log10 CFU/mL | 6.27 Log10 CFU/mL | 6.16 Log10 CFU/mL | 5.9 Log10 CFU/mL | 6.33 Log10 CFU/mL | >12500 µg/mL | >12500 µg/mL | >12500 µg/mL | >12500 µg/mL | MIC Aspergillus niger ([6]; n = 1): >12500 µg/mL; MIC Aspergillus niger ([6]; n = 2): >12500 µg/mL; MIC [7]: 3130 µg/mL; MIC E. coli ([7]; n = 1): 3130 µg/mL; MIC E. coli ([7]; n = 2): 3130 µg/mL; MIC [8]: 6250 µg/mL; MIC P. aeruginosa ([8]; n = 1): 6250 µg/mL; MIC P. aeruginosa ([8]; n = 2): 6250 µg/mL
4 | CCCCCCCCCCCCOC(=O)[C@H](C)N(C)C.Cl [Nex-57, L-Dodecyl 2-(dimethylamino)propanoate hydrochloride] | 3130 µg/mL | 3130 µg/mL | 3130 µg/mL | 1.57 | <4.0 Log10 CFU/mL | <3.70 Log10 CFU/mL | <3.52 Log10 CFU/mL | 5.78 Log10 CFU/mL | <4.0 Log10 CFU/mL | <3.70 Log10 CFU/mL | <3.52 Log10 CFU/mL | 5.45 Log10 CFU/mL | 6.17 Log10 CFU/mL | 6.19 Log10 CFU/mL | 5.92 Log10 CFU/mL | 6.29 Log10 CFU/mL | >12500 µg/mL | >12500 µg/mL | >12500 µg/mL | >12500 µg/mL | MIC Aspergillus niger ([6]; n = 1): >12500 µg/mL; MIC Aspergillus niger ([6]; n = 2): >12500 µg/mL; MIC [7]: 3130 µg/mL; MIC E. coli ([7]; n = 1): 3130 µg/mL; MIC E. coli ([7]; n = 2): 3130 µg/mL; MIC [8]: 6250 µg/mL; MIC P. aeruginosa ([8]; n = 1): 6250 µg/mL; MIC P. aeruginosa ([8]; n = 2): 6250 µg/mL
